Measurements taken from patent US20240109865A1, “INDAZOLE COMPOUNDS AS KINASE INHIBITORS” (TYRA BIOSCIENCES, INC., priority 2020, published 2024).

What was measured:
Assay in all cases: Kinase assay, binding constants (Kd), kinase-tagged T7 phage, qPCR
FGFR2 = FGFR2 (Homo sapiens (Human), UniProt P21802)
Summary of the method: (§1)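 Using T7 phage lysates from BL21-derived E. coli, compounds at 0.9% final DMSO competed for kinase binding to ligand-bearing magnetic beads. After elution, qPCR measured remaining kinase, and Kds were fitted by non-linear least squares with the Hill slope fixed at −1.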

FGFR3 = FGFR3 (Homo sapiens (Human), UniProt P22607)
Chain of FGFR3 (P22607 23-806): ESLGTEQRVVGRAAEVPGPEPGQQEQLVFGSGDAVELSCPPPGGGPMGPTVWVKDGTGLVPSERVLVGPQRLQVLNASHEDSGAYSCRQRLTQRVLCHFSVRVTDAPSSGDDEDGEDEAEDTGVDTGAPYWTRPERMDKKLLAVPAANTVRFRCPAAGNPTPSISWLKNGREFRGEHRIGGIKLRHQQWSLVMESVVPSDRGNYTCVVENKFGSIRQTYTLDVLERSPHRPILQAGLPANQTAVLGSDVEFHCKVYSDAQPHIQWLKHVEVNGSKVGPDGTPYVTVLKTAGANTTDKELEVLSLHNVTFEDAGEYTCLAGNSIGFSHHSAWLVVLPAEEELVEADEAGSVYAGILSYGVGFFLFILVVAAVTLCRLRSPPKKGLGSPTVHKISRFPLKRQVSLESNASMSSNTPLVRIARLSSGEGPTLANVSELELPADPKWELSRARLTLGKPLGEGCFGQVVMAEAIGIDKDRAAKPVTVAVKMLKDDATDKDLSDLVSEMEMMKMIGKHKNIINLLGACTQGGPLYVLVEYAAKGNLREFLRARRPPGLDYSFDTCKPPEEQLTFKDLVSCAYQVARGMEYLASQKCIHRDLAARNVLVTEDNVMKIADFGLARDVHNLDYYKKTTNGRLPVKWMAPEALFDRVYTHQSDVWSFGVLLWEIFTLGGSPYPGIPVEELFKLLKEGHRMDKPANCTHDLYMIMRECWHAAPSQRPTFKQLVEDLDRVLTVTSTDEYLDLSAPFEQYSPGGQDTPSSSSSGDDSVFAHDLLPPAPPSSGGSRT
Summary of the method: as §1

FGFR1 = FGFR1 (Homo sapiens (Human), UniProt P11362)
Chain of FGFR1 (P11362 22-822): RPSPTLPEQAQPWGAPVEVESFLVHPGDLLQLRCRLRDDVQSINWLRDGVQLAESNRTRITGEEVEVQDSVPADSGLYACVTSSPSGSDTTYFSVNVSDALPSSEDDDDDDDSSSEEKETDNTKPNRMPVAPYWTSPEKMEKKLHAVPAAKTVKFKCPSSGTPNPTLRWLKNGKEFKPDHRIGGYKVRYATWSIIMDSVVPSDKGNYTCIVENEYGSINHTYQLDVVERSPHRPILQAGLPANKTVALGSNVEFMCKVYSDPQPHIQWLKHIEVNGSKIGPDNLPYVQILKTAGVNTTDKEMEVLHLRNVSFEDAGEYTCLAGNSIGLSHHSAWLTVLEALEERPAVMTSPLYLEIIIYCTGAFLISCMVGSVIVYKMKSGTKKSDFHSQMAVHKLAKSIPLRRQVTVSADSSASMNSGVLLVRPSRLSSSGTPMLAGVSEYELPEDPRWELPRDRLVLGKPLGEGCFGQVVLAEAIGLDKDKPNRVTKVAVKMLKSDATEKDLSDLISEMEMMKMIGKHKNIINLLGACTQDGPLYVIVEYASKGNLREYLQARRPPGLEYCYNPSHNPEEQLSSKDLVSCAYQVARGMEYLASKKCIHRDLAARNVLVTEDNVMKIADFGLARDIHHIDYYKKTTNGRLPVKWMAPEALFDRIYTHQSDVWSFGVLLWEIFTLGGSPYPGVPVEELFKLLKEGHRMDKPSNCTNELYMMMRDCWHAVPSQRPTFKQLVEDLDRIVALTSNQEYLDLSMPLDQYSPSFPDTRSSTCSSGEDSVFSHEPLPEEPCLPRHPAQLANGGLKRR
Summary of the method: as §1

FGFR3 (V555M) = FGFR3 (V555M) (Homo sapiens (Human), UniProt P22607, V555M); conditions: V555M mutant
Chain of FGFR3 (V555M) (P22607 23-806 V555M): as the sequence (P22607 23-806) above, with V533M counted along it
Summary of the method: as §1

FGFR4 = FGFR4 (Homo sapiens (Human), UniProt P22455)
Chain of FGFR4 (P22455 22-802): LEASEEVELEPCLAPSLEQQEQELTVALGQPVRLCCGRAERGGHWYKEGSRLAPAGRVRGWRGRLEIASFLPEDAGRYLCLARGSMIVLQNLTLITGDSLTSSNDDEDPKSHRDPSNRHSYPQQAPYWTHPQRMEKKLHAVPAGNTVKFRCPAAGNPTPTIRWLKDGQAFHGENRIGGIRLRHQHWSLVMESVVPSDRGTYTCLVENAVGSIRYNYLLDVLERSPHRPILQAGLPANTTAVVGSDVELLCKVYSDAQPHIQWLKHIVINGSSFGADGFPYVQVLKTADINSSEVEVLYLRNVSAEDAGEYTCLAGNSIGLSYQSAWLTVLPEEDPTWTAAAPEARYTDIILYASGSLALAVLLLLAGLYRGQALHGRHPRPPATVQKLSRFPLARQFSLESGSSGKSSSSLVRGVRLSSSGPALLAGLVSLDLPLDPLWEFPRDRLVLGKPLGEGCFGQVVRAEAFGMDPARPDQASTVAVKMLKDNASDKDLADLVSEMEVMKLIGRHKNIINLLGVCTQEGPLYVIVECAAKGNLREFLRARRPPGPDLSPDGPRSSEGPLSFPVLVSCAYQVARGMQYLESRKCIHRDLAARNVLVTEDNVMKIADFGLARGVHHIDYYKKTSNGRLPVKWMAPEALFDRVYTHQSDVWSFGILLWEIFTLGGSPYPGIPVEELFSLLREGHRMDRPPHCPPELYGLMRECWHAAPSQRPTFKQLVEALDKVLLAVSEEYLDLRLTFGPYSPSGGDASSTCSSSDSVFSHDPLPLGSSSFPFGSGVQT
Summary of the method: as §1

Chain of FGFR2 (P21802 22-821): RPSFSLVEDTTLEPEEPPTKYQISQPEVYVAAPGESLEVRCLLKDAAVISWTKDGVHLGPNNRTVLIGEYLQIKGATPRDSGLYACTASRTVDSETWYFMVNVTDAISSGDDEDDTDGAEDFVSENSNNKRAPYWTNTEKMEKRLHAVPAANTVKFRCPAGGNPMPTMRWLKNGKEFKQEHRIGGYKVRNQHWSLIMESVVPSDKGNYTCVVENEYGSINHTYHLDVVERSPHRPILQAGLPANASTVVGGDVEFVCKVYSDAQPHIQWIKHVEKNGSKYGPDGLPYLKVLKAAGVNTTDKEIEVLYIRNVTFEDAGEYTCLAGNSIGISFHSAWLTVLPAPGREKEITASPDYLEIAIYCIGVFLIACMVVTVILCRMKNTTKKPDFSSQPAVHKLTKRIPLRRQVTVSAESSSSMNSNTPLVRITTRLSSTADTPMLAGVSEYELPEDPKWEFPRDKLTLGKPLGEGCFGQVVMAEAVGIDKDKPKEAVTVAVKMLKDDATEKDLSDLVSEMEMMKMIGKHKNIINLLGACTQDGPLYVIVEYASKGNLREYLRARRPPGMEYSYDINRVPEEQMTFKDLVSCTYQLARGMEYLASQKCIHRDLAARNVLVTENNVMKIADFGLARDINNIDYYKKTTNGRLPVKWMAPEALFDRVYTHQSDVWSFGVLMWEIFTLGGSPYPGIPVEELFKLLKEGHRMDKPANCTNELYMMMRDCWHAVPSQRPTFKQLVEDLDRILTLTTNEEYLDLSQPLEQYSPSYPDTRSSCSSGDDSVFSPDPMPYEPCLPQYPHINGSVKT

Row | SMILES | Kd (FGFR2) | Kd (FGFR3) | Kd (FGFR1) | Kd (FGFR3 (V555M)) | Kd (FGFR4)
1 | COc1cc2[nH]nc(-c3cnc(N4CC5(C4)CN(S(C)(=O)=O)C5)c(F)c3)c2cc1O[C@H](C)c1c(Cl)cnc(C)c1Cl [Example 243, 5-[(1R)-1-(3,5-dichloro-2-methyl-4-pyridyl)ethoxy]-3-[5-fluoro-6-(2-methylsulfonyl-2,6-diazaspiro[3.3]heptan-6-yl)-3-pyridyl]-6-methoxy-1H-indazole] | 1 to 20 nM | 1 to 20 nM | 1 to 20 nM | 1 to 20 nM | 1 to 20 nM
2 | C[C@@H](Oc1ccc2[nH]nc(-c3ccc(N4CC5(CCNC5)C4)nc3)c2c1)c1c(Cl)cncc1Cl [Example 164, 3-[6-(2,7-diazaspiro[3.4]octan-2-yl)-3-pyridyl]-5-[(1R)-1-(3,5-dichloro-4-pyridyl)ethoxy]-1H-indazole] | 1 to 20 nM | 1 to 20 nM | 1 to 20 nM | 1 to 20 nM | 1 to 20 nM
3 | Cc1ncc(Cl)c([C@@H](C)Oc2ccc3[nH]nc(-c4ccc(N5CC(C)(O)C5)nc4)c3c2)c1Cl [Example 222, 1-[5-[5-[(1R)-1-(3,5-dichloro-2-methyl-4-pyridyl)ethoxy]-1H-indazol-3-yl]-2-pyridyl]-3-methyl-azetidin-3-ol] | 20 to 100 nM | 1 to 20 nM | 20 to 100 nM | 1 to 20 nM | 1 to 20 nM
4 | COc1cc2[nH]nc(-c3cnc(N4CC5CC(C4)N5CC(C)(C)O)c(C)c3)c2cc1O[C@H](C)c1c(C)cnnc1C [Example 214, 1-(3-(5-(5-((R)-1-(3,5-dimethylpyridazin-4-yl)ethoxy)-6-methoxy-1H-indazol-3-yl)-3-methylpyridin-2-yl)-3,6-diazabicyclo[3.1.1]heptan-6-yl)-2-methylpropan-2-ol] | 1 to 20 nM | 1 to 20 nM | 1 to 20 nM | 1 to 20 nM | 1 to 20 nM
5 | COc1cc2[nH]nc(-c3cnc(N4CC[C@H](C(C)(C)O)C4)c(C#N)c3)c2cc1O[C@H](C)c1c(C)cnnc1C [Example 316, 5-(5-((R)-1-(3,5-dimethylpyridazin-4-yl)ethoxy)-6-methoxy-1H-indazol-3-yl)-2-((S)-3-(2-hydroxypropan-2-yl)pyrrolidin-1-yl)nicotinonitrile] | 20 to 100 nM | 1 to 20 nM | 20 to 100 nM | 1 to 20 nM | 1 to 20 nM
6 | C[C@@H](Oc1ccc2[nH]nc(-c3ccc(N4CC5(CN(CC(F)F)C5)C4)nc3)c2c1)c1c(Cl)cncc1Cl [Example 230, (R)-5-(1-(3,5-dichloropyridin-4-yl)ethoxy)-3-(6-(6-(2,2-difluoroethyl)-2,6-diazaspiro[3.3]heptan-2-yl)pyridin-3-yl)-1H-indazole] | 1 to 20 nM | 1 to 20 nM | 1 to 20 nM | 1 to 20 nM | 1 to 20 nM
7 | Cc1cnnc(C)c1[C@@H](C)Oc1ccc2[nH]nc(-c3cnc(N4CC[C@@H](O)C4)c(C#N)c3)c2c1 [Example 313, 5-(5-((R)-1-(3,5-dimethylpyridazin-4-yl)ethoxy)-1H-indazol-3-yl)-2-((R)-3-hydroxypyrrolidin-1-yl)nicotinonitrile] | 20 to 100 nM | 20 to 100 nM | 100 to 300 nM | 1 to 20 nM | 1 to 20 nM
8 | C[C@@H](Oc1ccc2[nH]nc(-c3cnc(N4CC5(C4)CN(S(C)(=O)=O)C5)c(C#N)c3)c2c1)c1c(Cl)cncc1Cl [Example 337, (R)-5-(5-(1-(3,5-dichloropyridin-4-yl)ethoxy)-1H-indazol-3-yl)-2-(6-(methylsulfonyl)-2,6-diazaspiro[3.3]heptan-2-yl)nicotinonitrile] | 100 to 300 nM | 20 to 100 nM | 20 to 100 nM | 1 to 20 nM | 1 to 20 nM
9 | C[C@@H](Oc1cc2c(-c3ccc(N4CC5(C4)CN(S(C)(=O)=O)C5)nc3)n[nH]c2cc1Cl)c1c(Cl)cncc1Cl [Example 260, (R)-6-chloro-5-(1-(3,5-dichloropyridin-4-yl)ethoxy)-3-(6-(6-(methylsulfonyl)-2,6-diazaspiro[3.3]heptan-2-yl)pyridin-3-yl)-1H-indazole] | 1 to 20 nM | 1 to 20 nM | 1 to 20 nM | 1 to 20 nM | 1 to 20 nM
10 | Cc1ncc(Cl)c([C@@H](C)Oc2cc3c(-c4ccc(N5CC6(C5)CN(S(C)(=O)=O)C6)nc4)n[nH]c3cc2F)c1Cl [Example 266, 5-[(1R)-1-(3,5-dichloro-2-methyl-4-pyridyl)ethoxy]-6-fluoro-3-[6-(2-methylsulfonyl-2,6-diazaspiro[3.3]heptan-6-yl)-3-pyridyl]-1H-indazole] | 1 to 20 nM | 1 to 20 nM | 1 to 20 nM | 1 to 20 nM | 1 to 20 nM
11 | COc1cc2[nH]nc(-c3ccc(N4CC5CC(C4)N5)nc3)c2cc1O[C@H](C)c1c(C)cnnc1C [Example 314, 3-(5-(5-((R)-1-(3,5-dimethylpyridazin-4-yl)ethoxy)-6-methoxy-1H-indazol-3-yl)pyridin-2-yl)-3,6-diazabicyclo[3.1.1]heptane] | 1 to 20 nM | 1 to 20 nM | 1 to 20 nM | 1 to 20 nM | 1 to 20 nM
12 | COc1cc2[nH]nc(-c3cnc(N4CC[C@@H](O)C4)c(C#N)c3)c2cc1O[C@H](C)c1c(C)cnnc1C [Example 319, 5-(5-((R)-1-(3,5-dimethylpyridazin-4-yl)ethoxy)-6-methoxy-1H-indazol-3-yl)-2-((R)-3-hydroxypyrrolidin-1-yl)nicotinonitrile] | 20 to 100 nM | 1 to 20 nM | 20 to 100 nM | 1 to 20 nM | 1 to 20 nM
13 | CC(C)N1CC[C@@H](n2cc(-c3n[nH]c4ccc(O[C@H](C)c5c(Cl)cncc5Cl)cc34)cn2)C1 [Example 84, 5-[(1R)-1-(3,5-dichloro-4-pyridyl)ethoxy]-3-[(1R)-1-(1-isopropylpyrrolidin-3-yl)pyrazol-4-yl]-1H-indazole] | 1 to 20 nM | 1 to 20 nM | 1 to 20 nM | 1 to 20 nM | 20 to 100 nM
14 | COc1cc2[nH]nc(-c3cnc(N4CC[C@H]4C)c(F)c3)c2cc1O[C@H](C)c1c(Cl)cncc1Cl [Example 267, 5-((R)-1-(3,5-dichloropyridin-4-yl)ethoxy)-3-(5-fluoro-6-((R)-2-methylazetidin-1-yl)pyridin-3-yl)-6-methoxy-1H-indazole] | 20 to 100 nM | 1 to 20 nM | 20 to 100 nM | 1 to 20 nM | 1 to 20 nM
15 | Cc1ncc(Cl)c([C@@H](C)Oc2ccc3[nH]nc(-c4ccc(N5CCC[C@@H]5CO)nc4)c3c2)c1Cl [Example 232, [(2R)-1-[5-[5-[(1R)-1-(3,5-dichloro-2-methyl-4-pyridyl)ethoxy]-1H-indazol-3-yl]-2-pyridyl]pyrrolidin-2-yl]methanol] | 20 to 100 nM | 1 to 20 nM | 20 to 100 nM | 1 to 20 nM | 1 to 20 nM
16 | C[C@@H](Oc1ccc2[nH]nc(-c3cnc(N4CC[C@H](O)C4)c(C#N)c3)c2c1)c1c(Cl)cncc1Cl [Example 293, 5-[5-[(1R)-1-(3,5-dichloro-4-pyridyl)ethoxy]-1H-indazol-3-yl]-2-[(3S)-3-hydroxypyrrolidin-1-yl]pyridine-3-carbonitrile] | 20 to 100 nM | 1 to 20 nM | 20 to 100 nM | 1 to 20 nM | 1 to 20 nM
17 | CNCc1cc(-c2n[nH]c3cc(OC)c(O[C@H](C)c4c(Cl)cncc4Cl)cc23)cnc1N1CC2(C1)CN(S(C)(=O)=O)C2 [Example 369, (R)-1-(5-(5-(1-(3,5-dichloropyridin-4-yl)ethoxy)-6-methoxy-1H-indazol-3-yl)-2-(6-(methylsulfonyl)-2,6-diazaspiro[3.3]heptan-2-yl)pyridin-3-yl)-N-methylmethanamine] | > 300 nM | 20 to 100 nM | > 300 nM | 20 to 100 nM | 20 to 100 nM
18 | C[C@@H](Oc1ccc2[nH]nc(-c3ccc(N4CC(C)(N)C4)nc3)c2c1)c1c(Cl)cncc1Cl [Example 257, (R)-1-(5-(5-(1-(3,5-dichloropyridin-4-yl)ethoxy)-1H-indazol-3-yl)pyridin-2-yl)-3-methylazetidin-3-amine] | 1 to 20 nM | 1 to 20 nM | 1 to 20 nM | 1 to 20 nM | 1 to 20 nM
19 | Cc1cnnc(C)c1[C@H](C)Oc1ccc2[nH]nc(-c3cnc(N4CCC5(CC4)CCS(=O)(=O)C5)nc3)c2c1 [Example 154, 8-[5-[5-[(1S)-1-(3,5-dimethylpyridazin-4-yl)ethoxy]-1H-indazol-3-yl]pyrimidin-2-yl]-2λ^6-thia-8-azaspiro[4.5]decane 2,2-dioxide] | > 300 nM | 100 to 300 nM | > 300 nM | 20 to 100 nM | 100 to 300 nM
20 | COc1cc2[nH]nc(-c3ccc(N4CCCC4)nc3)c2cc1O[C@H](C)c1c(C)cnnc1C [Example 315, (R)-5-(1-(3,5-dimethylpyridazin-4-yl)ethoxy)-6-methoxy-3-(6-(pyrrolidin-1-yl)pyridin-3-yl)-1H-indazole] | 1 to 20 nM | 1 to 20 nM | 1 to 20 nM | 1 to 20 nM | 1 to 20 nM
21 | C[C@@H](Oc1ccc2[nH]nc(-c3cnc(N4CCC(C(C)(C)O)CC4)c(C#N)c3)c2c1)c1c(Cl)cncc1Cl [Example 303, 5-[5-[(1R)-1-(3,5-dichloro-4-pyridyl)ethoxy]-1H-indazol-3-yl]-2-[4-(1-hydroxy-1-methyl-ethyl)-1-piperidyl]pyridine-3-carbonitrile] | 20 to 100 nM | 1 to 20 nM | 20 to 100 nM | 1 to 20 nM | 1 to 20 nM
22 | CC(C)N1CCC(n2cc(-c3n[nH]c4ccc(O[C@H](C)c5c(Cl)cncc5Cl)cc34)cn2)CC1 [Example 83, 5-[(1R)-1-(3,5-dichloro-4-pyridyl)ethoxy]-3-[1-(1-isopropyl-4-piperidyl)pyrazol-4-yl]-1H-indazole] | 1 to 20 nM | 1 to 20 nM | 1 to 20 nM | 1 to 20 nM | 20 to 100 nM
